Assay results published in PubChem BioAssay (NCI).
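Grown in 96-well plates, cells were treated for 48 hours with each compound at five concentrations. Insufficient inhibition: endpoint recorded as highest concentration tested. GI50 marks 50% less growth. Definition used: TGI = concentration required for complete inhibition of growth.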

Key:
Experiment in all cases: NCI anticancer screen, dose series, 48 h
786-0 renal = test system: 786-0 renal
A498 renal = test system: A498 renal
A549 NSCLC = test system: A549 NSCLC
ACHN renal = test system: ACHN renal
BT-549 breast = test system: BT-549 breast
CAKI-1 renal = test system: CAKI-1 renal
CCRF-CEM leukemia = test system: CCRF-CEM leukemia
COLO 205 colon = test system: COLO 205 colon
DU-145 prostate = test system: DU-145 prostate
EKVX NSCLC = test system: EKVX NSCLC
HCC-2998 colon = test system: HCC-2998 colon
HCT-116 colon = test system: HCT-116 colon
HCT-15 colon = test system: HCT-15 colon
HL-60(TB) leukemia = test system: HL-60(TB) leukemia
HOP-62 NSCLC = test system: HOP-62 NSCLC
HOP-92 NSCLC = test system: HOP-92 NSCLC
HS 578T breast = test system: HS 578T breast
HT29 colon = test system: HT29 colon
IGROV1 ovarian = test system: IGROV1 ovarian
K-562 leukemia = test system: K-562 leukemia
KM12 colon = test system: KM12 colon
LOX IMVI melanoma = test system: LOX IMVI melanoma
M14 melanoma = test system: M14 melanoma
MALME-3M melanoma = test system: MALME-3M melanoma
MCF7 breast = test system: MCF7 breast
MDA-MB-231 breast = test system: MDA-MB-231 breast
MDA-MB-435 = test system: MDA-MB-435
MOLT-4 leukemia = test system: MOLT-4 leukemia
NCI-H226 lung = test system: NCI-H226 lung
NCI-H23 lung = test system: NCI-H23 lung
NCI-H460 lung = test system: NCI-H460 lung
NCI-H522 lung = test system: NCI-H522 lung
NCI/ADR-RES ovarian = test system: NCI/ADR-RES ovarian
OVCAR-3 ovarian = test system: OVCAR-3 ovarian
OVCAR-4 ovarian = test system: OVCAR-4 ovarian
OVCAR-5 ovarian = test system: OVCAR-5 ovarian
OVCAR-8 ovarian = test system: OVCAR-8 ovarian
PC-3 prostate = test system: PC-3 prostate
RPMI-8226 leukemia = test system: RPMI-8226 leukemia
RXF 393 renal = test system: RXF 393 renal
SF-268 CNS = test system: SF-268 CNS
SF-295 CNS = test system: SF-295 CNS
SF-539 CNS = test system: SF-539 CNS
SK-MEL-2 melanoma = test system: SK-MEL-2 melanoma
SK-MEL-28 melanoma = test system: SK-MEL-28 melanoma
SK-MEL-5 melanoma = test system: SK-MEL-5 melanoma
SK-OV-3 ovarian = test system: SK-OV-3 ovarian
SN12C renal = test system: SN12C renal
SNB-19 CNS = test system: SNB-19 CNS
SNB-75 CNS = test system: SNB-75 CNS
SR leukemia = test system: SR leukemia
SW-620 colon = test system: SW-620 colon
T-47D breast = test system: T-47D breast
TK-10 renal = test system: TK-10 renal
U251 CNS = test system: U251 CNS
UACC-257 melanoma = test system: UACC-257 melanoma
UACC-62 melanoma = test system: UACC-62 melanoma
UO-31 renal = test system: UO-31 renal

Oc1c(CNCCNCc2cc(Cl)cc(Cc3ccccc3)c2O)cc(Cl)cc1Cc1ccccc1
GI50 (786-0 renal): 375 nM
TGI (786-0 renal): 10400 nM
GI50 (A498 renal): 1220 nM
TGI (A498 renal): 8880 nM
GI50 (A549 NSCLC): 469 nM
TGI (A549 NSCLC): > 100000 nM
GI50 (ACHN renal): 127 nM
TGI (ACHN renal): 11800 nM
GI50 (BT-549 breast): 4260 nM
TGI (BT-549 breast): 28000 nM
GI50 (CAKI-1 renal): 338 nM
TGI (CAKI-1 renal): 18700 nM
GI50 (CCRF-CEM leukemia): 127 nM
TGI (CCRF-CEM leukemia): 24400 nM
GI50 (COLO 205 colon): 309 nM
TGI (COLO 205 colon): 1530 nM
GI50 (DU-145 prostate): 303 nM
TGI (DU-145 prostate): 57100 nM
GI50 (EKVX NSCLC): 193 nM
TGI (EKVX NSCLC): > 100000 nM
GI50 (HCC-2998 colon): 451 nM
TGI (HCC-2998 colon): 10100 nM
GI50 (HCT-116 colon): 398 nM
TGI (HCT-116 colon): 13200 nM
GI50 (HCT-15 colon): 139 nM
TGI (HCT-15 colon): 14900 nM
GI50 (HL-60(TB) leukemia): 430 nM
TGI (HL-60(TB) leukemia): 9840 nM
GI50 (HOP-62 NSCLC): 307 nM
TGI (HOP-62 NSCLC): 47300 nM
GI50 (HOP-92 NSCLC): 2680 nM
TGI (HOP-92 NSCLC): 23900 nM
GI50 (HS 578T breast): 3910 nM
TGI (HS 578T breast): 59300 nM
GI50 (HT29 colon): 668 nM
TGI (HT29 colon): 20000 nM
GI50 (IGROV1 ovarian): 475 nM
TGI (IGROV1 ovarian): 16300 nM
GI50 (K-562 leukemia): 391 nM
TGI (K-562 leukemia): 27200 nM
GI50 (KM12 colon): 340 nM
TGI (KM12 colon): 15200 nM
GI50 (LOX IMVI melanoma): 136 nM
TGI (LOX IMVI melanoma): 1660 nM
GI50 (M14 melanoma): 316 nM
TGI (M14 melanoma): 10700 nM
GI50 (MALME-3M melanoma): 600 nM
TGI (MALME-3M melanoma): 7600 nM
GI50 (MCF7 breast): 291 nM
TGI (MCF7 breast): 47700 nM
GI50 (MDA-MB-231 breast): 730 nM
TGI (MDA-MB-231 breast): 25000 nM
GI50 (MDA-MB-435): 435 nM
TGI (MDA-MB-435): 13200 nM
GI50 (MOLT-4 leukemia): 342 nM
TGI (MOLT-4 leukemia): > 100000 nM
GI50 (NCI-H226 lung): 438 nM
TGI (NCI-H226 lung): 15500 nM
GI50 (NCI-H23 lung): 668 nM
TGI (NCI-H23 lung): 17600 nM
GI50 (NCI-H460 lung): 331 nM
TGI (NCI-H460 lung): 12200 nM
GI50 (NCI-H522 lung): 546 nM
TGI (NCI-H522 lung): 25600 nM
GI50 (NCI/ADR-RES ovarian): 364 nM
TGI (NCI/ADR-RES ovarian): 18300 nM
GI50 (OVCAR-3 ovarian): 428 nM
TGI (OVCAR-3 ovarian): 31100 nM
GI50 (OVCAR-4 ovarian): 80.6 nM
TGI (OVCAR-4 ovarian): > 100000 nM
GI50 (OVCAR-5 ovarian): 1200 nM
TGI (OVCAR-5 ovarian): > 100000 nM
GI50 (OVCAR-8 ovarian): 474 nM
TGI (OVCAR-8 ovarian): > 100000 nM
GI50 (PC-3 prostate): 620 nM
TGI (PC-3 prostate): > 100000 nM
GI50 (RPMI-8226 leukemia): 695 nM
TGI (RPMI-8226 leukemia): 6390 nM
GI50 (RXF 393 renal): 414 nM
TGI (RXF 393 renal): 3970 nM
GI50 (SF-268 CNS): 224 nM
TGI (SF-268 CNS): > 100000 nM
GI50 (SF-295 CNS): 448 nM
TGI (SF-295 CNS): 4100 nM
GI50 (SF-539 CNS): 314 nM
TGI (SF-539 CNS): 3930 nM
GI50 (SK-MEL-2 melanoma): 1820 nM
TGI (SK-MEL-2 melanoma): 23900 nM
GI50 (SK-MEL-28 melanoma): 478 nM
TGI (SK-MEL-28 melanoma): 30700 nM
GI50 (SK-MEL-5 melanoma): 302 nM
TGI (SK-MEL-5 melanoma): 1910 nM
GI50 (SK-OV-3 ovarian): 462 nM
TGI (SK-OV-3 ovarian): > 100000 nM
GI50 (SN12C renal): 483 nM
TGI (SN12C renal): 19400 nM
GI50 (SNB-19 CNS): 701 nM
TGI (SNB-19 CNS): > 100000 nM
GI50 (SNB-75 CNS): 1650 nM
TGI (SNB-75 CNS): 50200 nM
GI50 (SR leukemia): 376 nM
TGI (SR leukemia): > 100000 nM
GI50 (SW-620 colon): 472 nM
TGI (SW-620 colon): 30700 nM
GI50 (T-47D breast): 391 nM
TGI (T-47D breast): 37900 nM
GI50 (TK-10 renal): 228 nM
TGI (TK-10 renal): > 100000 nM
GI50 (U251 CNS): 297 nM
TGI (U251 CNS): 14400 nM
GI50 (UACC-257 melanoma): 2120 nM
TGI (UACC-257 melanoma): 16600 nM
GI50 (UACC-62 melanoma): 436 nM
TGI (UACC-62 melanoma): 10900 nM
GI50 (UO-31 renal): 128 nM
TGI (UO-31 renal): 1340 nM
